# In patent publication US12428432B2, “Thienopyrimidine derivatives having stereo configurations and use thereof in medicine” (SUNSHINE LAKE PHARMA CO., LTD., priority 2019, dated 2025):
# Where two headings read alike, the source gives them in different places.
# Tests used:
# [1] = Liver microsome stability test; format: in vitro ADME; settings: mouse liver microsomes, Conc. 1 μM; for half-life at 1 μM: male, CD-1; for Remaining (%) (NCF = 60 min): no cofactor (buffer instead of NADPH); for Remaining (%) (T = 60 min): with NADPH
# Experimental: Male CD-1 mouse liver microsomes, purchased from BD Gentest.
# Preparation of stock solution: a certain amount of test compound of A13 and Example 1 were weighed to prepare a stock solution with a concentration of 10 mM with DMSO, and stored in a refrigerator at −20° C.
# Preparation of NADPH solution: a certain amount of NADPH to be tested was weighed and prepared a solution with a concentration of 6 mM with 0.1 M potassium phosphate buffer (5 mg of NADPH was weighed and added to 1 mL of potassium phosphate buffer, the concentration was equivalent to 6 mM).
# Preparation of compound dosing solution: 100 μM dosing solution: 5 μL of 10 mM stock solution was added to 495 μL of acetonitrile:water (1:1); 30 μM dosing solution: 60 μL of 100 μM dosing solution was added to 140 μL of 0.1 M potassium phosphate buffer; 1.5 μM dosing solution: 25 μL of 30 μM dosing solution and 18.8 μL (20 mg/mL) of liver microsomes were added to 456.2 μL of 0.1 M potassium phosphate buffer, one for each species.
# μ30 μL of 1.5 μM dosing solution of the compound was added to a 96-well plate, 150 μL or 200 μL of acetonitrile internal standard was added immediately to the plate, then 15 μL of NADPH solution (6 mM) was added to the plate, the mixture was mixed well and placed in a 4° C. refrigerator as the initial 0 point sample, each drug was made two holes in parallel.
# 30 μL of 1.5 μM dosing solution was added to positions set at different time points in the 96-well plate, each drug was made two holes in parallel, and the pleat was preheated at 37° C. for 10 min.
# After pre-incubation, 15 μL of NADPH solution (6 mM) was added to the well set at the time point of 60 min, at the time point of NCF60, 15 μL of potassium phosphate buffer salt solution was added at the same time to start the reaction and start timing. Then after 40 min, 15 μL of NADPH solution was added to the well set at 20 min. After 20 min, the incubation was over. 150 or 200 μL of acetonitrile internal standard was added to the positions set at all time points. The plate was centrifuged at 4000 rpm for 5 min, 50 μL supernatant was taken out and diluted with 150 μL water for sample analysis.
# The initial 0 point was used as 100%, the relative content of the drug at each time point was calculated. GraphPad Prism5 software was used to plot the “relative content of the drug” versus “incubation time” to calculate the half-life of the drug and calculate the intrinsic clearance rate.
# [2] = Tissue distribution (liver/plasma) in mice after intragastric administration, LC-MS/MS; format: in vivo, C57BL/6 mice; settings: C57BL/6 male mice; for Kp at 0.5 h / Kp at 1 h / Kp at 2 h / concentration at 0.5 h / concentration at 1 h / concentration at 2 h: mouse, oral, 5 ml/kg; for Kp at 0.5 h / Kp at 1 h / Kp at 2 h: liver/plasma; for Kp at 0.5 h: read-out: Partition ratios of liver and plasma 0.5 h; for Kp at 1 h: read-out: Partition ratios of liver and plasma 1 h; for Kp at 2 h: read-out: Partition ratios of liver and plasma 2 h
# Experimental: C57BL/6 mice were used as the test animals, the LC-MS/MS method was used to determine the drug concentration in plasma and liver at different times after the mice were administered intragastrically the compounds of Examples 1 to 3 and A13. Pharmacokinetic properties of the compounds of the present invention in mice were studied.
# The prescriptions of A13, Example 1 and Example 2 were: 5% DMSO+5% Kolliphor HS15+90% Saline
# The prescription of Example 3 was: 10% DMSO+10% Kolliphor HS15+80% Saline
# Healthy adult C57BL/6 male mice, purchased from Hunan Slack Jingda Experimental Animal Co., Ltd., with an animal weight of 18-24 g, were administered intragastrically at a dosage of […] and a volume of 10 ml/kg.
# Bloods were collected from the orbit at different time points, and the whole blood samples were placed in an anticoagulation tube containing EDTA-K2; the plasma was separated by centrifugation (centrifugation conditions: 12000 rpm, 2 min) and the upper plasma sample was collected and placed into a sample tube.
# Animals were dissected and collected livers at different time points, a certain mass of liver tissue was weighed, 5 times the volume (m/V) of methanol solution was added to the homogenization tube, then homogenized at 60 hz for 2 minutes and centrifuged at 4° C. for 2 minutes, the supernatant was taken to obtain the liver homogenate.
# LC-MS/MS was used to analyze the content of the test compounds in the plasma and liver of the mice after the compounds were administered intragastrically.
# ACC1 = ACC1 (Homo sapiens (Human), UniProt Q13085); experiment: In vitro inhibitory activity test of acetyl-CoA carboxylase (ADP-Glo Kinase Analysis), ACC1; format: biochemical
# Experimental: (§1) The in vitro inhibitory effects of the compounds on ACC1 or ACC2 were tested by ADP-Glo™ Kinase Analysis Kit from Promega Company. The ADP-Glo™ Kinase Analysis was a luminescent ADP detection analysis, which was used to measure enzyme activity by quantifying the amount of ADP produced during the enzyme reaction. The analysis was performed with two steps: first, after the enzyme reaction, ADP-Glo™ reagent was added to stop the reaction and deplete the remaining ATP; then, a kinase detection reagent was added to simultaneously convert ADP to ATP and the newly synthesized ATP was measured using the luciferase/luciferin reaction. The luminescence can be correlated to the ADP concentration by using the ATP to ADP conversion curve.
# (§2) The specific steps are as follows: • a. 4.5 μL/well of ACC1/ACC2 working solution (2.22 nM) was added to a 384-well reaction plate (PerkinElmer, 6007290); • b. The compound (10 mM stock solution) was diluted 500 times to 20 μM with 100% DMSO, and diluted in a ratio of 1:3 in a 384 dilution plate (3657, corning). The gradient concentrations of the compound were 20, 6.67, 2.22 0.74, 0.25, 0.082, 0.027, 0.009, 0.003, 0.001, 0 μM; • c. 0.5 μL/well of the compound solution (prepared in step b) was transferred to the 384-well reaction plate (prepared in step a), then plate was centrifuged at 1000 rpm and incubated at 25° C. for 15 minutes; • d. […] Relative luminescence unit (RLU) was read on an Envision multifunction plate reader. […]
# (§3) The average values of each concentration and the data of the positive and negative controls were calculated, as well as the standard deviation. The percentage of inhibition was calculated by the formula: 100×(average negative control−compound)/(average negative control−average positive control). The IC50 for each compound was calculated by fitting the data with a nonlinear regression equation: Y=Bottom+(Top−Bottom)/(1+10^((Log IC50−X)×HillSlope)), wherein X is the log of compound concentration and Y is the percentage of inhibition.
# ACC2 = ACC2 (Homo sapiens (Human), UniProt O00763); experiment: In vitro inhibitory activity test of acetyl-CoA carboxylase (ADP-Glo Kinase Analysis), ACC2; format: biochemical
# Experimental: as §1, §2, §3
# [3] = liver, read-out: Average tissue concentrations (liver) 0.5 h
# [4] = liver, 1 h, read-out: Average tissue concentrations (liver) 1 h
# [5] = liver, read-out: Average tissue concentrations (liver) 2 h
# [6] = plasma, read-out: Average concentration (plasma) 0.5 h
# [7] = plasma, 1 h, read-out: Average concentration (plasma) 1 h
# [8] = plasma, read-out: Average concentration (plasma) 2 h
# Sequence of ACC2 (O00763 whole entry, species assumed): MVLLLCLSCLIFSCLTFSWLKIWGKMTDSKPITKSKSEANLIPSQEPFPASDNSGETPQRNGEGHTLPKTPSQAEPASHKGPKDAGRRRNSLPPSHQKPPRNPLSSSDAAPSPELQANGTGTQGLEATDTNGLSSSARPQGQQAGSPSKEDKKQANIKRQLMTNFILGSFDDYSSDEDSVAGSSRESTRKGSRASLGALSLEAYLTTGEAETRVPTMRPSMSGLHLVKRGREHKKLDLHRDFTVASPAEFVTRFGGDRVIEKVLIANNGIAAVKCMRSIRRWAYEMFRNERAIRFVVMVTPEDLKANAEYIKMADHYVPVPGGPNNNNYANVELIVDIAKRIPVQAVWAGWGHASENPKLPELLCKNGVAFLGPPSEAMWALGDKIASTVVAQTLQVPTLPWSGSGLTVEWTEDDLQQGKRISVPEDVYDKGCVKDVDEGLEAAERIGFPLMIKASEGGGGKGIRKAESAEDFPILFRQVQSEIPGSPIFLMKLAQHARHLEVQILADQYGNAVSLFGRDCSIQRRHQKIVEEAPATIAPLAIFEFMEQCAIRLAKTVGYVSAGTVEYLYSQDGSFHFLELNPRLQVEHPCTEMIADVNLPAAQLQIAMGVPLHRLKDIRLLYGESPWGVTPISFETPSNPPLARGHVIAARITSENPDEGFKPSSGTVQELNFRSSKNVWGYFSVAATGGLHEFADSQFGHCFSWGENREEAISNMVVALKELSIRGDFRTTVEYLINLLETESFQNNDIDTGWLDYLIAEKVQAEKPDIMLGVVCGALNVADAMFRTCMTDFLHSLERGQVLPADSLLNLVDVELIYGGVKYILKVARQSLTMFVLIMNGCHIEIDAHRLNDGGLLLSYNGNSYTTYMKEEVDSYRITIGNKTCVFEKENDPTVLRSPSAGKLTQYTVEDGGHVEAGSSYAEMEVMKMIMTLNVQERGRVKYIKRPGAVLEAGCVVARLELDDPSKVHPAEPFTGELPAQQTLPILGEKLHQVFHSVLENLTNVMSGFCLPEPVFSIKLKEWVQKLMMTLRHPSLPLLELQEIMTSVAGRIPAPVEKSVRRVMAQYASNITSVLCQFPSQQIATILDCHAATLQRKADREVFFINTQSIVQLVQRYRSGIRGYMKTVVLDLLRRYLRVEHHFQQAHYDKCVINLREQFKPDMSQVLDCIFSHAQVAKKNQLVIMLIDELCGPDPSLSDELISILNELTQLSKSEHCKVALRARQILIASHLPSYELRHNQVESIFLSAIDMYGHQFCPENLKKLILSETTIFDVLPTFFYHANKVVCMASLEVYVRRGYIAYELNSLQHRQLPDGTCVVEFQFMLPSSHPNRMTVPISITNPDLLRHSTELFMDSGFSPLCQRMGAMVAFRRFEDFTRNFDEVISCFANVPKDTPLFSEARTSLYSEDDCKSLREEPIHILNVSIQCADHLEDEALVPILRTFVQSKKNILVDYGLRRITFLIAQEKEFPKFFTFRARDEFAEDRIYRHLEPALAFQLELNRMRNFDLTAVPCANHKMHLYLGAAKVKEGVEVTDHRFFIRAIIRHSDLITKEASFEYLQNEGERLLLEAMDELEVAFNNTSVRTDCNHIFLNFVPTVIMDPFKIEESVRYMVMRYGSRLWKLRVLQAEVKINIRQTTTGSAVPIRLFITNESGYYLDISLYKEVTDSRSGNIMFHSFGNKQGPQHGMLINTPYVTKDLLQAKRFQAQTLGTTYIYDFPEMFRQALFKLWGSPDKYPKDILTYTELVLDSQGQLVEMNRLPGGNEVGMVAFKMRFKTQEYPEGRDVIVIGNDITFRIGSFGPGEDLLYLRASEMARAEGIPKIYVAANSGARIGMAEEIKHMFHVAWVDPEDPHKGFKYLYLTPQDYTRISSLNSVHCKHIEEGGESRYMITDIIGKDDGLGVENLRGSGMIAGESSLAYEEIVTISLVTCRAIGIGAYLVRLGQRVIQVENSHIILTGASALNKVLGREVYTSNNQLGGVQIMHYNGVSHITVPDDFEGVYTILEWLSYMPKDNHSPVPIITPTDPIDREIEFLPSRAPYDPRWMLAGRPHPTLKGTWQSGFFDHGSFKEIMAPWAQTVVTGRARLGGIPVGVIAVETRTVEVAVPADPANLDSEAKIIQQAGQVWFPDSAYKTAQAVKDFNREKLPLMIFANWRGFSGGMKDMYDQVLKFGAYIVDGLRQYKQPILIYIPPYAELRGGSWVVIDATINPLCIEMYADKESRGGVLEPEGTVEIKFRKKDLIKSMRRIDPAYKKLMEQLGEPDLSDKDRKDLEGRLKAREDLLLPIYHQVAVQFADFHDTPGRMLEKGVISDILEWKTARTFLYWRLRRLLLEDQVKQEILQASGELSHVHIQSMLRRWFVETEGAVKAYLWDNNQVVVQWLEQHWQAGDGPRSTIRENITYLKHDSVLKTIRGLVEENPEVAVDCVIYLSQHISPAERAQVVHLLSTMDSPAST
SMILES,half-life at 1 μM [1],ClHep [1],Clin vivo [1],ER [1],Remaining (%) (NCF = 60 min) [1],Remaining (%) (T = 60 min) [1],Kp at 0.5 h [2],Kp at 1 h ([2]; 1 h),Kp at 2 h [2],"concentration at 0.5 h [2, 3]","concentration at 1 h [2, 4]","concentration at 2 h [2, 5]","concentration at 0.5 h [2, 6]","concentration at 1 h [2, 7]","concentration at 2 h [2, 8]",IC50 (ACC1),Partition ratios of liver and plasma 0.5 h [2],Partition ratios of liver and plasma 2 h [2],Average tissue concentrations (liver) 0.5 h ([2]; liver),IC50 (ACC2),also measured
"COc1ccccc1C(Cn1c(=O)n(C(C)(C)C(=O)O)c(=O)c2c(C)c(-c3ncco3)sc21)OC1CC2COCC2C1 (racemic) [Example A13, reference compound]",1.49 h,60.9 mL/min/kg,36.3 mL/min/kg,0.4,81.0%,63.4%,86,130,170,61500 ng/g,33300 ng/g,14000 ng/g,717 ng/g,249 ng/g,82.8 ng/g,,,,,,
"COc1ccccc1[C@H](Cn1c(=O)n(C(C)(C)C(=O)O)c(=O)c2c(C)c(-c3ncco3)sc21)OC1C[C@H]2COC[C@@H]2C1 [Example 1, 2-[1-[(2R)-2-[[(3aR,6aR)-3,3a,4,5,6,6a-hexahydro-1H-cyclopenta[c]furan-5-yl]oxy]-2-(2-methoxyphenyl)ethyl]-5-methyl-6-oxazol-2-yl-2,4-dioxo-thieno[2,3-d]pyrimidin-3-yl]-2-methyl-propionic acid]",2.42 h,38.0 mL/min/kg,9.6 mL/min/kg,0.1,90.6%,71.9%,,,,,,,,,,1.42 nM,190,600,75000 ng/g,3.65 nM,"Partition ratios of liver and plasma 1 h ([2]; 1 h): 140; Average tissue concentrations (liver) 1 h ([2]; liver, 1 h): 48300 ng/g; Average tissue concentrations (liver) 2 h ([2]; liver): 35500 ng/g; Average concentration (plasma) 0.5 h ([2]; plasma): 391 ng/g; Average concentration (plasma) 1 h ([2]; plasma, 1 h): 336 ng/g; Average concentration (plasma) 2 h ([2]; plasma): 59.1 ng/g"
"COc1ccccc1[C@H](Cn1c(=O)n(C(C)(C)C(=O)O)c(=O)c2c(C)c(-c3ncco3)sc21)OC1C[C@@H]2COC[C@H]2C1 [Example 2, 2-[1-[(2R)-2-[[(3aS,6aS)-3,3a,4,5,6,6a-hexahydro-1H-cyclopenta[c]furan-5-yl]oxy]-2-(2-methoxyphenyl)ethyl]-5-methyl-6-oxazol-2-yl-2,4-dioxo-thieno[2,3-d]pyrimidin-3-yl]-2-methyl-propionic acid]",,,,,,,190,120,180,70400 ng/g,40600 ng/g,16900 ng/g,373 ng/g,351 ng/g,96.4 ng/g,1.09 nM,,,,3.82 nM,
"COc1ccccc1[C@H](Cn1c(=O)n(C(C)(C)C(=O)O)c(=O)c2c(C)c(-c3ncco3)sc21)O[C@H]1C[C@H]2COC[C@H]2C1 [Example 3, 2-[1-[(2R)-2-[[(3aR,6aS)-3,3a,4,5,6,6a-hexahydro-1H-cyclopenta[c]furan-5-yl]oxy]-2-(2-methoxyphenyl)ethyl]-5-methyl-6-oxazol-2-yl-2,4-dioxo-thieno[2,3-d]pyrimidin-3-yl]-2-methyl-propionic acid]",,,,,,,,,,,,,,,,0.23 nM,122,104,75500 ng/g,2.43 nM,Average tissue concentrations (liver) 2 h ([2]; liver): 26500 ng/g; Average concentration (plasma) 0.5 h ([2]; plasma): 669 ng/g; Average concentration (plasma) 2 h ([2]; plasma): 253 ng/g
